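Exposure lasted 48 hours, with cells grown in 96-well plates and compounds tested at five concentrations. The concentration for 50% growth inhibition is given as GI50. TGI denotes the concentration required for complete inhibition of growth.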
Tests used:
Test in all cases: inhibition of tumour cell growth, NCI panel, 48 h
SK-OV-3 ovarian = tested on: SK-OV-3 ovarian
KM12 colon = tested on: KM12 colon
ACHN renal = tested on: ACHN renal
OVCAR-5 ovarian = tested on: OVCAR-5 ovarian
DU-145 prostate = tested on: DU-145 prostate
SK-MEL-2 melanoma = tested on: SK-MEL-2 melanoma
HL-60(TB) leukemia = tested on: HL-60(TB) leukemia
T-47D breast = tested on: T-47D breast
IGROV1 ovarian = tested on: IGROV1 ovarian
MCF7 breast = tested on: MCF7 breast
NCI-H522 lung = tested on: NCI-H522 lung
SF-268 CNS = tested on: SF-268 CNS
HCT-15 colon = tested on: HCT-15 colon
SF-295 CNS = tested on: SF-295 CNS
NCI-H226 lung = tested on: NCI-H226 lung
CAKI-1 renal = tested on: CAKI-1 renal
UACC-62 melanoma = tested on: UACC-62 melanoma
MDA-MB-231 breast = tested on: MDA-MB-231 breast
HOP-92 NSCLC = tested on: HOP-92 NSCLC
NCI-H23 lung = tested on: NCI-H23 lung
TK-10 renal = tested on: TK-10 renal
786-0 renal = tested on: 786-0 renal
SF-539 CNS = tested on: SF-539 CNS
PC-3 prostate = tested on: PC-3 prostate
SN12C renal = tested on: SN12C renal
SW-620 colon = tested on: SW-620 colon
HS 578T breast = tested on: HS 578T breast
OVCAR-3 ovarian = tested on: OVCAR-3 ovarian
K-562 leukemia = tested on: K-562 leukemia
SK-MEL-5 melanoma = tested on: SK-MEL-5 melanoma
BT-549 breast = tested on: BT-549 breast
SR leukemia = tested on: SR leukemia
NCI-H460 lung = tested on: NCI-H460 lung
MOLT-4 leukemia = tested on: MOLT-4 leukemia
MDA-MB-435 = tested on: MDA-MB-435
OVCAR-8 ovarian = tested on: OVCAR-8 ovarian
NCI/ADR-RES ovarian = tested on: NCI/ADR-RES ovarian
A549 NSCLC = tested on: A549 NSCLC
RPMI-8226 leukemia = tested on: RPMI-8226 leukemia
EKVX NSCLC = tested on: EKVX NSCLC
M14 melanoma = tested on: M14 melanoma
UO-31 renal = tested on: UO-31 renal
A498 renal = tested on: A498 renal
CCRF-CEM leukemia = tested on: CCRF-CEM leukemia
HCC-2998 colon = tested on: HCC-2998 colon
SNB-19 CNS = tested on: SNB-19 CNS
LOX IMVI melanoma = tested on: LOX IMVI melanoma
MALME-3M melanoma = tested on: MALME-3M melanoma
SK-MEL-28 melanoma = tested on: SK-MEL-28 melanoma
SNB-75 CNS = tested on: SNB-75 CNS
OVCAR-4 ovarian = tested on: OVCAR-4 ovarian
UACC-257 melanoma = tested on: UACC-257 melanoma
RXF 393 renal = tested on: RXF 393 renal
COLO 205 colon = tested on: COLO 205 colon

COc1ccc(-c2ccc(-c3ccc(C(=N)N)cc3)s2)cc1Cl
GI50 (SK-OV-3 ovarian): 1.98 µM | TGI (SK-OV-3 ovarian): 4.46 µM | GI50 (KM12 colon): 1.75 µM | TGI (KM12 colon): 3.13 µM | GI50 (ACHN renal): 1.62 µM | TGI (ACHN renal): 2.97 µM | GI50 (OVCAR-5 ovarian): 1.55 µM | TGI (OVCAR-5 ovarian): 2.88 µM | GI50 (DU-145 prostate): 1.7 µM | TGI (DU-145 prostate): 3.06 µM | GI50 (SK-MEL-2 melanoma): 2.05 µM | TGI (SK-MEL-2 melanoma): 4.2 µM | GI50 (HL-60(TB) leukemia): 1.91 µM | TGI (HL-60(TB) leukemia): 4.05 µM | GI50 (T-47D breast): 1.85 µM | TGI (T-47D breast): 4.33 µM

CCOP(=O)(OCC)C(NC(c1ccccc1)c1ccccc1)c1ccsc1 (stereo not given)
GI50 (IGROV1 ovarian): 37.6 µM | TGI (IGROV1 ovarian): > 100 µM | GI50 (MCF7 breast): 24.2 µM | TGI (MCF7 breast): > 100 µM | GI50 (NCI-H522 lung): 25.2 µM | TGI (NCI-H522 lung): 74.5 µM | GI50 (KM12 colon): 16.7 µM | TGI (KM12 colon): 37.5 µM | GI50 (SF-268 CNS): 15.5 µM | TGI (SF-268 CNS): 36.2 µM | GI50 (HCT-15 colon): 16.1 µM | TGI (HCT-15 colon): 84.6 µM | GI50 (SF-295 CNS): 18.4 µM | TGI (SF-295 CNS): 36.9 µM | GI50 (OVCAR-5 ovarian): 16.9 µM | TGI (OVCAR-5 ovarian): 32.6 µM | GI50 (NCI-H226 lung): 13.7 µM | TGI (NCI-H226 lung): 28.8 µM | GI50 (CAKI-1 renal): 16 µM | TGI (CAKI-1 renal): 33.2 µM | GI50 (UACC-62 melanoma): 12.8 µM | TGI (UACC-62 melanoma): 25.5 µM | GI50 (MDA-MB-231 breast): 7.05 µM | TGI (MDA-MB-231 breast): 20.5 µM | GI50 (HOP-92 NSCLC): 14.3 µM | TGI (HOP-92 NSCLC): 30.8 µM | GI50 (NCI-H23 lung): 19.9 µM | TGI (NCI-H23 lung): 35.5 µM | GI50 (TK-10 renal): 16.1 µM | TGI (TK-10 renal): 32.2 µM | GI50 (786-0 renal): 17.2 µM | TGI (786-0 renal): 31.4 µM | GI50 (SF-539 CNS): 24 µM | TGI (SF-539 CNS): 43.1 µM | GI50 (PC-3 prostate): 10.9 µM | TGI (PC-3 prostate): 23.9 µM | GI50 (SN12C renal): 16.7 µM | TGI (SN12C renal): 30.3 µM | GI50 (DU-145 prostate): 19.1 µM | TGI (DU-145 prostate): 35.5 µM | GI50 (SW-620 colon): 29.2 µM | TGI (SW-620 colon): 61.5 µM | GI50 (HS 578T breast): 29.7 µM | TGI (HS 578T breast): 66.3 µM | GI50 (OVCAR-3 ovarian): 16.1 µM | TGI (OVCAR-3 ovarian): 32.2 µM | GI50 (K-562 leukemia): 14.9 µM | TGI (K-562 leukemia): 56.5 µM | GI50 (SK-MEL-5 melanoma): 18.4 µM | TGI (SK-MEL-5 melanoma): 35.1 µM | GI50 (BT-549 breast): 27.5 µM | TGI (BT-549 breast): 52.3 µM | GI50 (SR leukemia): 23 µM | TGI (SR leukemia): 98.2 µM | GI50 (SK-MEL-2 melanoma): 43.4 µM | TGI (SK-MEL-2 melanoma): > 100 µM | GI50 (HL-60(TB) leukemia): 23 µM | TGI (HL-60(TB) leukemia): 56.9 µM | GI50 (NCI-H460 lung): 18.7 µM | TGI (NCI-H460 lung): 53.7 µM | GI50 (MOLT-4 leukemia): 25.4 µM | TGI (MOLT-4 leukemia): > 100 µM | GI50 (MDA-MB-435): 21.2 µM | TGI (MDA-MB-435): 39.7 µM | GI50 (OVCAR-8 ovarian): 23.5 µM | TGI (OVCAR-8 ovarian): 57 µM | GI50 (NCI/ADR-RES ovarian): 14.4 µM | TGI (NCI/ADR-RES ovarian): 29.7 µM | GI50 (A549 NSCLC): 24.7 µM | TGI (A549 NSCLC): 76.9 µM | GI50 (RPMI-8226 leukemia): 7.76 µM | TGI (RPMI-8226 leukemia): 22 µM | GI50 (EKVX NSCLC): 21.7 µM | TGI (EKVX NSCLC): 41.6 µM | GI50 (M14 melanoma): 16.5 µM | TGI (M14 melanoma): 30.5 µM | GI50 (UO-31 renal): 33.1 µM | TGI (UO-31 renal): > 100 µM | GI50 (A498 renal): 30.8 µM | TGI (A498 renal): 49.6 µM

O=C(CCN1CCCC1)Nc1ccc2c(Nc3ccc(Br)cc3)c3ccccc3nc2c1
GI50 (CCRF-CEM leukemia): 0.494 µM | TGI (CCRF-CEM leukemia): 2.83 µM | GI50 (IGROV1 ovarian): 1.23 µM | TGI (IGROV1 ovarian): 2.59 µM | GI50 (KM12 colon): 1.57 µM | TGI (KM12 colon): 3.29 µM | GI50 (HCC-2998 colon): 1.26 µM | TGI (HCC-2998 colon): 2.73 µM | GI50 (SF-268 CNS): 1.33 µM | TGI (SF-268 CNS): 2.81 µM | GI50 (SNB-19 CNS): 1.44 µM | TGI (SNB-19 CNS): 2.79 µM | GI50 (ACHN renal): 1.23 µM | TGI (ACHN renal): 2.48 µM | GI50 (HCT-15 colon): 1.16 µM | TGI (HCT-15 colon): 2.5 µM | GI50 (SF-295 CNS): 1.59 µM | TGI (SF-295 CNS): 3.02 µM | GI50 (OVCAR-5 ovarian): 1.63 µM | TGI (OVCAR-5 ovarian): 3.03 µM | GI50 (NCI-H226 lung): 1.39 µM | TGI (NCI-H226 lung): 3.02 µM | GI50 (LOX IMVI melanoma): 1 µM | TGI (LOX IMVI melanoma): 2.24 µM | GI50 (CAKI-1 renal): 1.53 µM | TGI (CAKI-1 renal): 2.87 µM | GI50 (UACC-62 melanoma): 1.64 µM | TGI (UACC-62 melanoma): 3.12 µM | GI50 (MDA-MB-231 breast): 1.57 µM | TGI (MDA-MB-231 breast): 2.99 µM | GI50 (HOP-92 NSCLC): 1.31 µM | TGI (HOP-92 NSCLC): 2.71 µM | GI50 (NCI-H23 lung): 1.47 µM | TGI (NCI-H23 lung): 2.92 µM | GI50 (MALME-3M melanoma): 1.62 µM | TGI (MALME-3M melanoma): 3.09 µM | GI50 (TK-10 renal): 1.72 µM | TGI (TK-10 renal): 3.37 µM | GI50 (786-0 renal): 1.5 µM | TGI (786-0 renal): 3.02 µM | GI50 (SF-539 CNS): 1.55 µM | TGI (SF-539 CNS): 2.95 µM | GI50 (PC-3 prostate): 1.4 µM | TGI (PC-3 prostate): 3.04 µM | GI50 (SK-MEL-28 melanoma): 1.63 µM | TGI (SK-MEL-28 melanoma): 3.02 µM | GI50 (SNB-75 CNS): 1.37 µM | TGI (SNB-75 CNS): 2.68 µM | GI50 (SN12C renal): 1.3 µM | TGI (SN12C renal): 2.69 µM | GI50 (DU-145 prostate): 0.798 µM | TGI (DU-145 prostate): 2.07 µM | GI50 (SW-620 colon): 1.24 µM | TGI (SW-620 colon): 2.64 µM | GI50 (OVCAR-3 ovarian): 1.61 µM | TGI (OVCAR-3 ovarian): 3.11 µM | GI50 (OVCAR-4 ovarian): 1.51 µM | TGI (OVCAR-4 ovarian): 2.92 µM | GI50 (SK-MEL-5 melanoma): 1.57 µM | TGI (SK-MEL-5 melanoma): 2.92 µM | GI50 (BT-549 breast): 1.44 µM | TGI (BT-549 breast): 3 µM | GI50 (UACC-257 melanoma): 1.89 µM | TGI (UACC-257 melanoma): 3.7 µM | GI50 (SR leukemia): 0.288 µM | TGI (SR leukemia): 2.58 µM | GI50 (SK-MEL-2 melanoma): 1.98 µM | TGI (SK-MEL-2 melanoma): 3.76 µM | GI50 (NCI-H460 lung): 0.337 µM | TGI (NCI-H460 lung): 1.55 µM | GI50 (MDA-MB-435): 1.68 µM | TGI (MDA-MB-435): 3.1 µM | GI50 (RXF 393 renal): 1.23 µM | TGI (RXF 393 renal): 2.57 µM | GI50 (RPMI-8226 leukemia): 1.73 µM | TGI (RPMI-8226 leukemia): 6.07 µM | GI50 (EKVX NSCLC): 1.59 µM | TGI (EKVX NSCLC): 3.05 µM | GI50 (COLO 205 colon): 1.85 µM | TGI (COLO 205 colon): 4.33 µM | GI50 (UO-31 renal): 1.33 µM | TGI (UO-31 renal): 2.61 µM | GI50 (A498 renal): 1.7 µM | TGI (A498 renal): 5.82 µM

Reference: PubChem BioAssay (NCI)
